“And” between values parts separate entries of the source, which are not always exact repeats. Equal entries are not always repeated.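 Cultured in 96-well plates, cells were exposed to test compound for 48 hours across five concentrations. The concentration for 50% growth inhibition is given as GI50. The concentration for full growth arrest is given as TGI.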
Experiments:
Assay in all cases: DTP human tumour cell line panel, 48 h
[1] = system: BT-549 breast
[2] = system: OVCAR-8 ovarian
[3] = system: HOP-92 NSCLC
[4] = system: MDA-MB-435
[5] = system: SK-MEL-2 melanoma
[6] = system: K-562 leukemia
[7] = system: EKVX NSCLC
[8] = system: A498 renal
[9] = system: UACC-62 melanoma
[10] = system: SR leukemia

Row | Compound | GI50 [1] [µM] | TGI [1] | GI50 [2] [µM] | TGI [2] | TGI [3] | GI50 [4] [µM] | TGI [4] | TGI [5] | GI50 [6] [µM] | TGI [6] [µM] | GI50 [7] [µM] | TGI [7] | TGI [8] | GI50 [9] [µM] | TGI [9] [µM] | TGI [10] [µM] | GI50 [3] [µM] | GI50 [5] [µM] | GI50 [8] [µM] | GI50 [10] [µM]
1 | Cc1cc(O)c2c(c1)C(=O)c1cc(O)cc(O)c1C2=O | 25.4 | 86 µM | 34.3 | > 100 µM | 56.8 µM | 18.1 | 62.5 µM | > 74.3 µM | 28 | > 100 | 24.3 | > 100 µM | 56.5 µM | 11.2 | 38.1 | 68 | – | – | – | –
2 | C#CCN1CCN(C(=S)N/N=C(\C)c2ccccn2)CC1 | – | 3.29 µM and 3.25 µM | 0.0131 | 3.5 µM and 3.46 µM | 5.13 µM and 5.16 µM | – | 3.39 µM and 4.03 µM | 5.41 µM and 4.64 µM | 0.00334 | 14 | 0.471 | 3.52 µM and 6.91 µM | 5.47 µM and 5.21 µM | – | – | 2.36 | 3.43 | 2.4 | 3.31 | –
3 | COc1ccc(-c2cnc(-c3ccc(F)cc3)[nH]2)cc1 | 1.79 | 4.12 µM | 7.85 | 21.1 µM | 13.1 µM | 1.96 | 5.27 µM | 45 µM | 10.3 | > 55.1 | 5.9 | 18.5 µM | 6.17 µM | 19.4 | > 50 | 6.27 | – | 18.8 | 2.2 | 2.41
4 | Cn1ccc(=Nc2ccc(NC(=O)c3ccc(N=c4ccn(C)c5ccc([N+](=O)[O-])cc45)cc3)cc2)cc1 | 71.5 | > 100 µM | > 100 | > 100 µM | > 100 µM | 6.53 | > 100 µM | > 100 µM | 6.75 | > 100 | 55.1 | > 100 µM | > 100 µM | 17.8 | > 100 | > 100 | 42.4 | 79.1 | > 100 | 33
5 | COc1ccc2cc(C(=O)/C=C/c3cccc(Cl)c3Cl)ccc2c1 | 12.5 | 48.9 µM | 14.9 | > 100 µM | > 79.7 µM | 1.44 | 29.6 µM | 98.3 µM | 4.93 | > 100 | 20.1 | > 100 µM | 32.1 µM | 4.08 | 28.4 | > 100 | 22.1 | > 50.9 | 18.1 | 0.806
6 | CCOC(=O)/C=C1\SC(=Nc2ccc(C#N)cc2)N(CCN2C(=O)/C(=C/C(=O)OCC)SC2=Nc2ccc(C#N)cc2)C1=O | 2.98 | 16.4 µM | 3.65 | > 63.8 µM | 36.5 µM | 3.21 | 16 µM | 28.8 µM | 0.786 | > 100 | 5.2 | 28.7 µM | 20.5 µM | 3.25 | 17.9 | > 100 | 13.7 | 12.1 | 6.82 | 0.303
7 | Cc1ccc(S(=O)(=O)Oc2ccc3c4c(c(=O)oc3c2)CCCCC4)cc1 | 7.1 | > 100 µM | > 100 | > 100 µM | > 100 µM | > 100 | > 100 µM | > 100 µM | 3.51 | > 100 | – | – | > 100 µM | 5.72 | > 100 | > 100 | 9.26 | > 100 | 6.21 | 3.3
8 | CN(C)CCNC(=O)c1cccc2cc3ccccc3nc12 | 2.41 | 10.8 µM | 0.62 | 7.73 µM | 5.41 µM | 1.86 | 6.67 µM | 4.34 µM | 1.88 | 18.1 | 2.25 | 7.81 µM | 2.8 µM | 1.42 | 3.25 | 8.1 | 1.24 | 2.27 | 1.26 | 0.338
9 | Nc1ccn([C@H]2C[C@@H](O)[C@@H](CO)S2)c(=O)n1 | > 100 | > 100 µM | 11.2 | > 100 µM | > 100 µM | 16.9 | > 100 µM | > 100 µM | > 100 | > 100 | > 100 | > 100 µM | > 100 µM | > 100 | > 100 | > 100 | > 100 | > 100 | > 100 | > 100
10 | C/C=C(\C)C(=O)O[C@@H]1C(O)[C@H]2OC(COC(=O)CCC(=O)CCCCCC[C@H](CCCCC)O[C@@H]3OC(C)[C@H](OC(C)=O)C(O)[C@H]3O2)[C@H]1OC(=O)/C=C/c1ccccc1 (stereo partly drawn) | 0.019 | 13.8 µM | < 0.0341 | > 51.4 µM | 0.415 µM | < 0.01 | 4.68 µM | 4.27 µM | < 0.01 | > 100 | < 0.0267 | > 87.9 µM | 5.59 µM | 0.0176 | 1.01 | 3.18 | < 0.01 | 0.322 | 0.12 | < 0.012
11 | N#CC1C(=N)Cc2ccccc2-c2ccccc21 (stereo not drawn) | 8.64 | 38.7 µM | 5.81 | 41.1 µM | 36.6 µM | 1.2 | 3.57 µM | 28.7 µM | 2.71 | 89.4 | 4.37 | > 100 µM | 14 µM | 3.83 | 17.1 | 20.7 | 10 | 12 | 2.78 | 3.31
12 | COc1cc2cc(Oc3ccc(NC(=O)Nc4ccccc4)cc3)c(C)nc2cc1OCCN1CCCCC1 | 5.63 | 11.2 µM | 6.26 | 15.3 µM | 7.66 µM | 5.55 | 10.1 µM | 12.1 µM | 1.05 | 3.7 | 5.22 | 10.9 µM | 9.3 µM | 5.89 | 11 | 2.66 | 2.72 | 5.96 | 4.75 | 0.934

Reference: PubChem BioAssay (NCI)
